Results: patent US10278931B2, “Composition for treatment of inflammatory bowel disease and atopic dermatitis” (INNOPHARMASCREEN INC., priority 2015, dated 2019)

Assays:
[1] = test system: HMC-1 cells; test: Cytotoxicity (MTT-assay) in HMC-1 cells; format: cell-based, human
Experimental: (§1) (1) Cell culture: A human mast cell line (HMC-1) was cultured in an IMDM supplemented with 10% FBS at 37° C. and 5% CO2. Candidate materials were dissolved in DMSO, and then filtered using a 0.22 μm filter. The resulting candidate materials were diluted with DMSO and the HMC-1 cells were treated therewith.
[…] After culturing, the medium was replaced by a fresh medium, 5 mg/ml of an MTT solution was then added thereto, and the mast cells were incubated at 37° C. for 4 hours. 250 DMSO was added to the mast cells, MTT formazan was extracted therefrom, and absorbance of each well was measured at 540 nm using an ELISA reader.

[2] = test system: active caspase-1; test: Western blotting of active caspase-1 in HMC-1 cells; format: cell-based, human
Experimental: (6) Western blotting analysis: Cells were seeded in a 6-well plate and then treated with a drug, and after a certain period of time, the cells were harvested. After harvest, the cells were washed with PBS and then lysed. 50 μg of tissue protein and cell extract protein were subjected to electrophoresis on 12% gel, transferred to nitrocellulose paper, and then blocked with 6% bovine serum albumin for 2 hours. Each protein was reacted with a primary antibody overnight and washed with PBS-tween. Thereafter, the resulting protein was reacted with a secondary antibody for 2 hours, washed, and then detected using an ECL solution kit.

[3] = test system: balb/c mice with DNCB-induced atopic dermatitis; test: DNCB-induced atopic dermatitis model; format: in vivo; settings: for epidermal thickness: DNCB group 87.1±13.0, normal 24.5±10.3; for number of mast cells in skin tissue: applied 3 weeks; for blood IgE level: DNCB group 790.0±151.8
Description: (§2) (5) Reverse transcription-polymerase chain reaction (RT-PCR) quantitative real time PCR: Total RNA was isolated from cells and tissues, and cDNA was synthesized using a reverse transcriptase and was then reacted with cytokine primers to be analyzed, followed by PCR and real-time PCR. The RT-PCR products were subjected to electrophoresis using 1.5% agarose gel for analysis.
A. Experimental animal: 5-week-old male BALB/c mice obtained from. Daehan Biolink (Eumseong, Chungbuk) were adapted for 2 weeks in a clean animal breeding room (small animal room #2-302) at Hoseo University Safety Evaluation Center, set under environmental conditions: temperature of 22±3° C.; relative humidity of 50±20%; ventilation frequency of 10 to 15 times/hour, illumination for 12 hours; and illuminance of 150 Lux to 300 Lux, and then used in an experiment.
4 experimental animals were accommodated in each of polycarbonate cages (270×500×200 mm, KYERYONG SCIENCE). Feed (5053-Picolab Rodent 20, PMI Nutrition International) and drinking water (ultraviolet sterilized filtered water) were allowed to ingest freely. All procedures of the experiment were conducted after approved by the Ethics Committee of the Hoseo University Safety Evaluation Center (HTRC-15-19).
(§3) B. Dermatitis induction: Hairs on the back of each mouse were removed and maintained for 24 hours, and then 150 μl of a 1% 2,4-dinitrochlorobenzene(DNCB) solution (acetone: olive oil=3:1) was applied on the hair-removed site once a week for 3 weeks. After week 3, the DNCB solution was applied on the site twice a week for 3 weeks to induce atopic dermatitis.
(§4) C. Treatment: Mice were divided into 6 groups, and 0.5% DMSO was applied on animals as a control and 200 μl of each of 0.01 μM, 0.1 μM, and 1 μM test material was applied on animals as experimental groups for 3 weeks. 50 μl of 0.1% dexamethasone dissolved in a crude alcohol was applied on animals as a positive control at intervals of 2 days.
D. Biopsy: After application of the test material was completed, the dorsal skin of each experimental animal was incised under heart anesthesia, some of them were rapidly frozen using liquid nitrogen and stored at −70° C. before analysis, and the remainder was fixed with 10% neutral buffered formalin for 24 hours. The fixed tissues were prepared into slides through general tissue processing, and then subjected to hematoxylin & eosin (H&E) staining to measure the thickness of the epidermal layer. In addition, toluidine blue staining was performed to observe a quantitative change of mast cells. While the stained tissues were observed by an optical microscope, the thickness of the epidermal layer and the number of mast cells were obtained using an image analyzer (Olympus DP-21).
E. IgE level measurement: IgE concentration in blood was measured by (SHIBAYAGI, Japan) using serum collected when autopsy was performed. 50 μL of an IgE standard solution and the sample were placed in antibody-attached 96 wells and allowed to react for 2 hours, and then 50 μL of a biotin-conjugated anti-IgE antibody solution was added to each well and allowed to react for 2 hours. Thereafter, the resulting sample was reacted with a HRP-avidin solution for 1 hour and a chromogenic substrate (TBM) reagent for 20 minutes, and the reaction was stopped using a reaction stopper. Absorbance of the sample was measured at 450 nm using ELISA (Molecular devices Emax).

[4] = test system: TSLP mRNA; test: TSLP mRNA expression (RT-PCR) in HMC-1 cells; format: cell-based, human
Experimental: as §1, §2

[5] = test system: inflammatory cytokines; test: Inflammatory cytokine production and mRNA expression in HMC-1 cells; format: cell-based, human
Experimental: as §1, §2

[6] = target: T1, caspase-1 (Mus musculus, UniProt P29452); test: Caspase-1 assay in dorsal skin of DNCB-applied mice; format: in vivo; settings: DNCB-applied balb/c mice, concentration-dependent
T1 construct: using the dorsal skin of DNCB-applied balb/c mice; from tissue; host or cells: dorsal skin of BALB/c mice
T1 sequence (P29452 119-402): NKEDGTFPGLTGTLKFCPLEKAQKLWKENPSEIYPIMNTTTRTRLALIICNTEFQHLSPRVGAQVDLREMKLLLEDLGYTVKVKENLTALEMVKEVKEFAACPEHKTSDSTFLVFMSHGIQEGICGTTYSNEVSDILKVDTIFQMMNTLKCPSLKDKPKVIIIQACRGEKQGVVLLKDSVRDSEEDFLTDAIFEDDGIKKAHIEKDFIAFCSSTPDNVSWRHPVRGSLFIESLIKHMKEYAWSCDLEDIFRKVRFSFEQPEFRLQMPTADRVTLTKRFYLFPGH
Experimental: (4) Caspase-1 assay: Recombinant caspase-1 and a drug were allowed to react, and then activity measurement was performed using a caspase-1 assay kit (R&D Systems Inc., Minneapolis, Minn., USA).
as §3, §4

[7] = DNCB-applied balb/c mice skin tissue, RT-PCR
[8] = DNCB-applied balb/c mice, concentration of 0.011 μM (so in the source)

Compound: Cl.N=C(N)NC(=N)Nc1ccc(Cl)cc1 [IPS-07001]
- cytotoxicity (MTT-assay) ([1]; 10 μM): exhibited cytotoxicity
- cytotoxicity (MTT-assay) ([1]; up to 1 μM): no cytotoxicity
- expression of active caspase-1 [2]: inhibited
- visual changes of skin symptoms ([3]; 0.01 μM, topical, 3 weeks): No significant visual changes
- epidermal thickness ([3]; 0.01 μM): 70.8±4.3 μm
- number of mast cells in skin tissue ([3]; 0.1 μM, p<0.01): 25.8±3.5
- visual changes of skin symptoms ([3]; 0.1 μM, topical, 3 weeks): No significant visual changes
- epidermal thickness ([3]; 0.1 μM): 74.4±7.1 μm
- blood IgE level ([3]; 0.1 μM, p<0.05): 632.6±138.8
- number of mast cells in skin tissue ([3]; 1 μM, p<0.01): 23.8±5.1
- erythema, excoriation, and lichenification (visual observation) ([3]; 1 μM, topical, 3 weeks, compared to DNCB group): reduced
- epidermal thickness ([3]; 1 μM): 60.0±8.2 μm
- blood IgE level ([3]; 1 μM, p<0.01): 537.9±132.9
- IL-6 mRNA expression in atopic skin lesions [3, 7]: regulated
- TARC mRNA expression in atopic skin lesions [3, 7]: regulated
- TNF-a mRNA expression in atopic skin lesions [3, 7]: regulated
- IL-4 level in dorsal skin [3, 8]: significantly regulated
- serum IL-4 level [3, 8]: significantly regulated
- serum IgE level [3, 8]: significantly regulated
- serum histamine level [3, 8]: significantly regulated
- TSLP mRNA expression [4]: significantly inhibited
- production and mRNA expression of various inflammatory cytokines [5]: significantly inhibited
- caspase-1 activity in dorsal skin [6]: significantly inhibited
